# From patent publication US9482923B2, “Colored composition and image display structure” (FUJIFILM CORPORATION, priority 2011, dated 2016)
# What was measured:
# Type in all cases: physicochemical
# [1] = Absorption maximum wavelength and absorption coefficient of colored composition (visible-light spectrophotometer); parameters: Absorption Coefficient (ε): unit not given here; settings: n-hexane solution; for Absorption Coefficient (ε): calculated by Lambert-Beer law
# Experimental: Each of the dyes shown above as Exemplary Compounds D-2, D-11, D-13, D-14, D-25, D-37, E-2, E-3, and E-7 was dissolved in a solvent (n-hexane) to make a 3% by mass solution, thereby preparing a colored composition (ink). Each of the colored compositions (inks) obtained was evaluated with respect to its color, absorption maximum wavelength (λmax), absorbance (abs), absorption coefficient (∈), viscosity, and relative dielectric constant, and solubility (% by mass) of each of the dyes in a solvent.
# 2. Absorption Maximum Wavelength, Absorbance, and Absorption Coefficient of Colored Composition
# The absorption maximum wavelength (λmax) and the absorbance (abs) of the colored composition were measured using a visible-light spectrophotometer (trade name: UV-1800PC, manufactured by Shimadzu Corporation). The absorption coefficient (∈) was calculated based on the Lambert-Beer law.
# [2] = Solubility of the dye in n-hexane; settings: for Solubility (% by mass): in n-hexane at 25° C. and 0.1 MPa; for Solubility (in words): n-hexane
# Experimental: 3. Solubility in n-Hexane
# The solubility of each of the dyes in n-hexane (solvent) was determined as follows.
# Each of the dyes to be measured was dissolved in n-hexane heated at 50° C., thereby preparing a saturated solution. The saturated solution obtained was then left in an environment of 25° C. and 0.1 MPa for 1 hour. The precipitated dye was filtered, and the precipitation amount was measured, from which the solubility (% by mass) of the dye in n-hexane at 25° C. and 0.1 MPa was calculated.
# [3] = Measurement of viscosity of dye solutions in n-hexane (R-type viscometer); settings: 20° C.; for Viscosity (5%): 5% by mass solution in n-hexane
# [4] = Measurement of relative dielectric constant of the dye (LCR meter, extrapolation); settings: extrapolated from 5, 7.5 and 10% by mass n-hexane solutions, 20° C., 40% RH, 1 kHz
# Experimental: 4. Measurement of Relative Dielectric Constant
# Solutions of the dye in n-hexane having concentrations of 5% by mass, 7.5% by mass and 10% by mass, respectively, were prepared, and individually injected into glass cells each having transparent indium-tin-oxide electrodes and a cell gap of 10 μm. The electrical capacities of the resultant cells were measured at 20° C. and 40% RH using a type 2353 LCR meter (manufactured by NF Corporation) at a measurement frequency of 1 kHz. The electrical capacity of n-hexane was also measured as a control sample. The relative dielectric constant of the dye was calculated based on the extrapolation method using the dielectric constants of the above prepared dye solutions calculated from the their electric capacities.
SMILES,Absorption Maximum Wavelength λmax [1] [nm],Absorption Coefficient (ε) [1],Solubility (% by mass) [2] [% by mass],Viscosity (5%) [3] [mPa · S],Relative Dielectric Constant [4],Solubility (in words) [2],Viscosity (10%) ([3]; 10% by mass solution in n-hexane) [mPa · S]
CCCCCCN(CCCCCC)c1ccc(C=C2C(=O)ON=C2C(C)(C)C)c(C)c1 [D-37],465,4.10 × 10^4,1.2,–,–,–,–
CCCCCCCCCCCCN(CCCCCCCCCCCC)c1ccc(C=CC=C2C(=O)ON=C2C(C)(C)C)c(C)c1 [E-2],515,5.10 × 10^4,6.5,2.1,9.5,–,–
CCCCCCCCN(CCCCCCCC)c1ccc(C=CC=C2C(=O)ON=C2C(C)(C)C)c(OC)c1 [E-3],530,5.20 × 10^4,7.2,2.1,9.0,–,–
CCCCCCCCCCCCN(CCCCCCCCCCCC)c1ccc(C=CC=CC=C2C(=O)ON=C2C)c(C)c1 [E-7],556,5.20 × 10^4,5.0,2.3,–,–,–

# Further lines, results first:
Absorption Maximum Wavelength λmax [1] [nm],Absorption Coefficient (ε) [1],Solubility (% by mass) [2] [% by mass],Viscosity (5%) [3] [mPa · S],Relative Dielectric Constant [4],Solubility (in words) [2],Viscosity (10%) ([3]; 10% by mass solution in n-hexane) [mPa · S],SMILES
459,3.80 × 10^4,5.0,2.1,–,–,–,CCCCOC(=O)CN(CC(=O)OCCCC)c1ccc(C=C2C(=O)ON=C2C(C)(C)C)cc1 [D-11]
–,–,0.015,–,–,low solubility,–,"Cc1cc(C=C2C(=O)ON=C2C(C)(C)C)c(C)n1-c1ccc(C(=O)O)cc1 [D-101, reference compound]"
426,3.66 × 10^4,8.0,2.1,–,–,–,CCCCCCCCCCCCn1cc(C=C2C(=O)ON=C2c2ccccc2)c2ccccc21 [D-25]
–,–,0.008,–,–,low solubility,–,"COc1ccc(C2=NOC(=O)C2=Cc2ccc(N(CC(=O)O)CC(=O)O)cc2)cc1 [D-102, reference compound]"
468,4.50 × 10^4,10.5,2.1,8.2,–,3.2,CCCCCCCCCCCCN(CCCCCCCCCCCC)c1ccc(C=C2C(=O)ON=C2c2ccccc2)cc1 [D-2]
